Measured values published in patent publication US4169096A, “Antibiotic compounds” (priority 1977, dated 1979).
In brackets after ≈: the same amount, converted by molar mass.

Experiments:
C. perfringens A9635 = experiment: animal or person; assay type: in vivo, mice
Proteus mirabilis A9554 = experiment: MIC, serial two-fold agar dilution, aerobic bacteria; assay type: cell-based; details: Nutrient agar (Eiken)
[1] = tested on: Bacteroides fragilis A20929; experiment: microbe, parasite or virus in culture
[2] = tested on: Staphylococcus aureus #52-34; experiment: MIC, serial two-fold agar dilution, aerobic bacteria; assay type: cell-based
[3] = tested on: C. perfringens or S. pyrogenes; assay type: in vivo, mice; details: oral
B. fragilis A20928-1 [4] = experiment: Bactericidal activity (MIC & MBC); assay type: cell-based; details: Bacteroides fragilis, A209281, inoculum size 2.8 × 10^6 cell/ml
Solubility = assay type: physicochemical
[5] = tested on: Staphylococcus aereus Smith; experiment: MIC, serial two-fold agar dilution, aerobic bacteria; assay type: cell-based
[6] = tested on: Sphaerophorus pseudonecrophorus A20013; experiment: microbe, parasite or virus in culture; details: Fusobacterium necrophorum
B. fragilis A20928-1 [7] = experiment: Inoculum size effect on MIC, GAM broth; assay type: cell-based; details: Bacteroides fragilis

For `COC(=O)C1C(C)OC2(C)CC(=O)C3OC12OC(C(C)/C=C(C)/C=C/C(=O)C1=C(O)CN(C)C1=O)C3C` (stereo not drawn) [Bu-2313A], the ED50 (C. perfringens A9635; Clostridium perfringens, A9635, in Mus musculus, sc, 120 h, read-out: PD50) was 6.25 mg/kg, the PD50 (C. perfringens A9635; po, just before challenge, determined after 5 days, NA: no activity) was “NA at 50” and the MIC (Proteus mirabilis A9554) was > 100 µg/mL. The MIC [1] was 0.2 µg/mL (≈ 0.386 µM), the MIC [2] was 12.5 µg/mL (≈ 24.2 µM) and the “activity by the oral route” value [3] was “inactive by the oral route”. For the same molecule, the MIC (B. fragilis A20928-1 [4]; broth) was 0.03 µg/mL (≈ 0.058 µM), the MBC (B. fragilis A20928-1 [4]; growth of less than 100 colonies per plate, 18 hours at 37° C.) was > 0.8 µg/mL and the solubility (Solubility; hexane and alkaline water) was “slightly soluble”. For the same molecule, the solubility (Solubility; most organic solvents such as lower alcohols, ethyl acetate, chloroform and benzene) was “readily soluble”, the solubility (Solubility; water) was “practically insoluble” and the MIC [5] was 12.5 µg/mL (≈ 24.2 µM). For the same molecule, the MIC [6] was 0.2 µg/mL (≈ 0.386 µM), the MIC (B. fragilis A20928-1 [7]; A209281, inoculum size […] 10^7 cell/ml, read-out: MIC in GAM broth) was 0.8 µg/mL (≈ 1.55 µM) and the MIC (B. fragilis A20928-1 [7]; A209281, read-out: MIC in GAM broth, inoculum size […] 10^6 cell/ml) was 0.06 µg/mL (≈ 0.116 µM).
